From patent US4981854A, “A-aryl-4-quinolone-3-carboxylic acids” (Bayer Aktiengesellschaft, priority 1985, dated 1991)
In brackets after ≈: the same amount, converted by molar mass.

Columns and labels:
Assay in all cases: Minimum inhibitory concentration, agar dilution test (Denley Multipoint inoculator, Isosensitest medium)
Type in all cases: cell-based
Staphylococcus aur. 133 = tested on: Staphylococcus aur. 133
Description: (§1) The MIC values of some of the compounds according to the invention are given in the following table. | Minimum inhibitory concentration mcg/ml^(x) | ^(x) Agar dilution test/Denley Multipoint inoculator Isosensitest | medium

Klebsiella spec. 6179 = tested on: Klebsiella spec. 6179
Description: as §1

Proteus vulg. 1017 = tested on: Proteus vulg. 1017
Description: as §1

E. coli 455/7 = details: Escherichia coli
Description: as §1

E. coli Neum. = details: Escherichia coli
Description: as §1

Pseudomonas aerug. W. = tested on: Pseudomonas aerug. W.
Description: as §1

E. coli 4418 = details: Escherichia coli
Description: as §1

[1] = tested on: Streptococcus faecalis 27101; details: Enterococcus faecalis
Description: as §1

Staphylococcus aur. 1756 = tested on: Staphylococcus aur. 1756
Description: as §1

Klebsiella pneum. 8085 = tested on: Klebsiella pneum. 8085
Description: as §1

Klebsiella pneum. 63 = tested on: Klebsiella pneum. 63
Description: as §1

Row | MIC (Staphylococcus aur. 133) | MIC (Klebsiella spec. 6179) | MIC (Proteus vulg. 1017) | MIC (E. coli 455/7) | MIC (E. coli Neum.) | MIC (Pseudomonas aerug. W.) | MIC (E. coli 4418) | MIC [1] | MIC (Staphylococcus aur. 1756) | MIC (Klebsiella pneum. 8085) | MIC (Klebsiella pneum. 63) | Compound
1 | 0.5 µg/mL (≈ 1.2 µM) | 0.5 µg/mL (≈ 1.2 µM) | 0.5 µg/mL (≈ 1.2 µM) | 16 µg/mL (≈ 38.3 µM) | 0.125 µg/mL (≈ 0.299 µM) | 8 µg/mL (≈ 19.2 µM) | 0.25 µg/mL (≈ 0.599 µM) | 4 µg/mL (≈ 9.58 µM) | 0.5 µg/mL (≈ 1.2 µM) | 0.125 µg/mL (≈ 0.299 µM) | 0.25 µg/mL (≈ 0.599 µM) | CN1CCN(c2c(F)cc3c(=O)c(C(=O)O)cn(-c4ccc(F)cc4)c3c2F)CC1 [Example 1, 6,8-Difluoro-1,4-dihydro-4-oxo-1-(4-fluorophenyl)-7-(4-methyl-1-piperazinyl)-quinoline-3-carboxylic acid]
2 | 0.5 µg/mL (≈ 1.2 µM) | 0.25 µg/mL (≈ 0.599 µM) | 0.25 µg/mL (≈ 0.599 µM) | 8 µg/mL (≈ 19.2 µM) | ~0.015 µg/mL (≈ 0.0359 µM) | 4 µg/mL (≈ 9.58 µM) | 0.125 µg/mL (≈ 0.299 µM) | 4 µg/mL (≈ 9.58 µM) | 0.5 µg/mL (≈ 1.2 µM) | 0.06 µg/mL (≈ 0.144 µM) | 0.125 µg/mL (≈ 0.299 µM) | CC1CN(c2c(F)cc3c(=O)c(C(=O)O)cn(-c4ccc(F)cc4)c3c2F)CCN1 (centres unmarked) [Example 2, 6,8-Difluoro-1,4-dihydro-4-oxo-1-(4-fluorophenyl)-7-(3-methyl-1-piperazinyl)-quinoline-3-carboxylic acid]
3 | 0.25 µg/mL (≈ 0.62 µM) | 0.06 µg/mL (≈ 0.149 µM) | 0.03 µg/mL (≈ 0.0744 µM) | 8 µg/mL (≈ 19.8 µM) | ~0.015 µg/mL (≈ 0.0372 µM) | 1 µg/mL (≈ 2.48 µM) | 0.06 µg/mL (≈ 0.149 µM) | 4 µg/mL (≈ 9.92 µM) | 0.25 µg/mL (≈ 0.62 µM) | ~0.015 µg/mL (≈ 0.0372 µM) | 0.06 µg/mL (≈ 0.149 µM) | O=C(O)c1cn(-c2ccc(F)cc2)c2c(F)c(N3CCNCC3)c(F)cc2c1=O [Example 3, 6,8-Difluoro-1,4-dihydro-4-oxo-1-(4-fluorophenyl)-7-(1-piperazinyl)-quinoline-3-carboxylic acid]
4 | 1 µg/mL (≈ 3.13 µM) | 2 µg/mL (≈ 6.26 µM) | 0.06 µg/mL (≈ 0.188 µM) | 8 µg/mL (≈ 25.1 µM) | 0.125 µg/mL (≈ 0.391 µM) | 2 µg/mL (≈ 6.26 µM) | 0.125 µg/mL (≈ 0.391 µM) | 1 µg/mL (≈ 3.13 µM) | 1 µg/mL (≈ 3.13 µM) | 0.25 µg/mL (≈ 0.783 µM) | 0.25 µg/mL (≈ 0.783 µM) | CCn1cc(C(=O)O)c(=O)c2cc(F)c(N3CCNCC3)cc21 [Norfloxacin, reference compound]
